In the supplement of paper PMC12463676, “Small-molecule dissolution of stress granules by redox modulation benefits ALS models” (Nature Chemical Biology, 2025):

Legend:
lipoamide = compound: NC(=O)CCCCC1CCSS1 [lipoamide]; assay: thermal stability z-score vs DMSO; higher = more thermally stabilized by treatment; conditions: HeLa, lipoamide concentration 100 µM
Procedure: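 Cellular thermal proteome profiling in HeLa cells. Cells were treated with 100 µM lipoamide for 1 h, with or without 1 mM arsenate for a further 1 h, then heated to ten temperatures (37-66.3 °C), and soluble protein was quantified by TMT mass spectrometry relative to 0.1% DMSO controls. The thermal stability score (sum of log2 fold changes minus the abundance score) was transformed to a z-score; mean of n = 3 experiments.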

potassium arsenate = compound: O=[As]([O-])(O)O.[K+] [potassium arsenate]; assay: as above; conditions: HeLa; arsenate concentration 1 mM
Procedure: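 Cellular thermal proteome profiling in HeLa cells treated with 1 mM arsenate for 1 h (DMSO pretreatment), heated to ten temperatures (37-66.3 °C). Soluble protein was quantified by TMT mass spectrometry relative to DMSO controls; the thermal stability score was transformed to a z-score; mean of n = 3 experiments.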

[1] = arsenate co-treatment: 1 mM arsenate 1 h
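Also: each temperature applied for 3 min, abundance score taken as mean log2 fold change at the two lowest temperatures, z-score obtained by mean subtraction and division by SD.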

Target: PRPS2 (UniProt P11908)
- thermal stability z-score (lipoamide; [1]): 0.114
- thermal stability z-score (lipoamide; arsenate co-treatment: none): -0.199
- thermal stability z-score (potassium arsenate): -1.24

Target: PDIA5 (UniProt Q14554)
- thermal stability z-score (lipoamide; [1]): -3.58
- thermal stability z-score (lipoamide; arsenate co-treatment: none): -2.41
- thermal stability z-score (potassium arsenate): 0.611

Target: PARP9 (UniProt Q8IXQ6)
- thermal stability z-score (lipoamide; [1]): -0.239
- thermal stability z-score (lipoamide; arsenate co-treatment: none): -0.1
- thermal stability z-score (potassium arsenate): -0.0858

Target: PPWD1 (UniProt Q96BP3)
Sequence of UniProt Q96BP3 (Q96BP3 whole entry): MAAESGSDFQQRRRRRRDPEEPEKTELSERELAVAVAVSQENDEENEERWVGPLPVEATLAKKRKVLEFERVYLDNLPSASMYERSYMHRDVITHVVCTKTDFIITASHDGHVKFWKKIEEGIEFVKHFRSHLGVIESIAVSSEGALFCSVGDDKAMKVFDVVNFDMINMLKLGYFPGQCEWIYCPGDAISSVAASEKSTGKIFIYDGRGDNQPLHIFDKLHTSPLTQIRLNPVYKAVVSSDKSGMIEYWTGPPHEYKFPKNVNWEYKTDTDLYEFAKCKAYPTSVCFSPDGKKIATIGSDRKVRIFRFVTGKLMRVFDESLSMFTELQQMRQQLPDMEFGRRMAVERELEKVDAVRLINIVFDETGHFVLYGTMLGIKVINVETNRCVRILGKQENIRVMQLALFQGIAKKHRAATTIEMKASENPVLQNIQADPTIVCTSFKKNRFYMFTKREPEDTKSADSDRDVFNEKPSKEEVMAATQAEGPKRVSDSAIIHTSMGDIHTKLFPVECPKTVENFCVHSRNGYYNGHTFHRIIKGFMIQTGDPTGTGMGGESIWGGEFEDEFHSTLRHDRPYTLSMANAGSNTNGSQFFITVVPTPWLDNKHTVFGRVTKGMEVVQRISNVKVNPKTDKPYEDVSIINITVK
- thermal stability z-score (lipoamide; [1]): -0.218
- thermal stability z-score (lipoamide; arsenate co-treatment: none): -0.513
- thermal stability z-score (potassium arsenate): -0.656

Target: PAIP2 (UniProt Q9BPZ3)
Sequence of UniProt Q9BPZ3 (Q9BPZ3 whole entry): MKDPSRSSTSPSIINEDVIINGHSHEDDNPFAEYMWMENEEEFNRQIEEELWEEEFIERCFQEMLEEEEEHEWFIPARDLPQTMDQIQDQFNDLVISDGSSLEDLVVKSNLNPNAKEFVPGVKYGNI
- thermal stability z-score (lipoamide; [1]): 0.427
- thermal stability z-score (lipoamide; arsenate co-treatment: none): 0.233
- thermal stability z-score (potassium arsenate): -1.06

Target: FBL (UniProt P22087)
- thermal stability z-score (lipoamide; [1]): 0.277
- thermal stability z-score (lipoamide; arsenate co-treatment: none): -0.112
- thermal stability z-score (potassium arsenate): 0.723

Target: RAB5C (UniProt P51148)
- thermal stability z-score (lipoamide; [1]): 0.345
- thermal stability z-score (lipoamide; arsenate co-treatment: none): 0.119
- thermal stability z-score (potassium arsenate): 0.552

Target: TAGLN2 (UniProt P37802)
- thermal stability z-score (lipoamide; [1]): 0.511
- thermal stability z-score (lipoamide; arsenate co-treatment: none): 0.94
- thermal stability z-score (potassium arsenate): -0.184

Target: IL18 (UniProt Q14116)
- thermal stability z-score (lipoamide; [1]): 0.282
- thermal stability z-score (lipoamide; arsenate co-treatment: none): -0.0498
- thermal stability z-score (potassium arsenate): -0.226

Target: GIPC3 (UniProt Q8TF64)
- thermal stability z-score (lipoamide; [1]): -0.481
- thermal stability z-score (lipoamide; arsenate co-treatment: none): -0.0967
- thermal stability z-score (potassium arsenate): -0.214

Target: OSBP2 (UniProt Q969R2)
- thermal stability z-score (lipoamide; [1]): 0.192
- thermal stability z-score (lipoamide; arsenate co-treatment: none): 0.026
- thermal stability z-score (potassium arsenate): -0.124

Target: GNS (UniProt P15586)
- thermal stability z-score (lipoamide; [1]): -0.0525
- thermal stability z-score (lipoamide; arsenate co-treatment: none): -0.0481
- thermal stability z-score (potassium arsenate): -0.512

Target: SLC25A19 (UniProt Q9HC21)
- thermal stability z-score (lipoamide; [1]): -0.0932
- thermal stability z-score (lipoamide; arsenate co-treatment: none): 0.281
- thermal stability z-score (potassium arsenate): -0.374

Target: VIM (UniProt P08670)
- thermal stability z-score (lipoamide; [1]): 1.82
- thermal stability z-score (lipoamide; arsenate co-treatment: none): 1.15
- thermal stability z-score (potassium arsenate): 0.432

Target: TBCC (UniProt Q15814)
- thermal stability z-score (lipoamide; [1]): -0.35
- thermal stability z-score (lipoamide; arsenate co-treatment: none): -0.196
- thermal stability z-score (potassium arsenate): -0.00724

Target: IPO11 (UniProt Q9UI26)
- thermal stability z-score (lipoamide; [1]): -0.322
- thermal stability z-score (lipoamide; arsenate co-treatment: none): -0.104
- thermal stability z-score (potassium arsenate): -0.0713

Target: TOMM70 (UniProt O94826)
- thermal stability z-score (lipoamide; [1]): -0.0648
- thermal stability z-score (lipoamide; arsenate co-treatment: none): 0.115
- thermal stability z-score (potassium arsenate): -0.0776

Target: SMARCE1 (UniProt Q969G3)
- thermal stability z-score (lipoamide; [1]): 1.96
- thermal stability z-score (lipoamide; arsenate co-treatment: none): 1.55
- thermal stability z-score (potassium arsenate): 0.125

Target: MLST8 (UniProt Q9BVC4)
- thermal stability z-score (lipoamide; [1]): -0.537
- thermal stability z-score (lipoamide; arsenate co-treatment: none): 0.0244
- thermal stability z-score (potassium arsenate): 0.14

Target: MEPCE (UniProt Q7L2J0)
- thermal stability z-score (lipoamide; [1]): -0.372
- thermal stability z-score (lipoamide; arsenate co-treatment: none): 0.65
- thermal stability z-score (potassium arsenate): 1.22

Target: TOPBP1 (UniProt Q92547)
Sequence of UniProt Q92547 (Q92547 whole entry): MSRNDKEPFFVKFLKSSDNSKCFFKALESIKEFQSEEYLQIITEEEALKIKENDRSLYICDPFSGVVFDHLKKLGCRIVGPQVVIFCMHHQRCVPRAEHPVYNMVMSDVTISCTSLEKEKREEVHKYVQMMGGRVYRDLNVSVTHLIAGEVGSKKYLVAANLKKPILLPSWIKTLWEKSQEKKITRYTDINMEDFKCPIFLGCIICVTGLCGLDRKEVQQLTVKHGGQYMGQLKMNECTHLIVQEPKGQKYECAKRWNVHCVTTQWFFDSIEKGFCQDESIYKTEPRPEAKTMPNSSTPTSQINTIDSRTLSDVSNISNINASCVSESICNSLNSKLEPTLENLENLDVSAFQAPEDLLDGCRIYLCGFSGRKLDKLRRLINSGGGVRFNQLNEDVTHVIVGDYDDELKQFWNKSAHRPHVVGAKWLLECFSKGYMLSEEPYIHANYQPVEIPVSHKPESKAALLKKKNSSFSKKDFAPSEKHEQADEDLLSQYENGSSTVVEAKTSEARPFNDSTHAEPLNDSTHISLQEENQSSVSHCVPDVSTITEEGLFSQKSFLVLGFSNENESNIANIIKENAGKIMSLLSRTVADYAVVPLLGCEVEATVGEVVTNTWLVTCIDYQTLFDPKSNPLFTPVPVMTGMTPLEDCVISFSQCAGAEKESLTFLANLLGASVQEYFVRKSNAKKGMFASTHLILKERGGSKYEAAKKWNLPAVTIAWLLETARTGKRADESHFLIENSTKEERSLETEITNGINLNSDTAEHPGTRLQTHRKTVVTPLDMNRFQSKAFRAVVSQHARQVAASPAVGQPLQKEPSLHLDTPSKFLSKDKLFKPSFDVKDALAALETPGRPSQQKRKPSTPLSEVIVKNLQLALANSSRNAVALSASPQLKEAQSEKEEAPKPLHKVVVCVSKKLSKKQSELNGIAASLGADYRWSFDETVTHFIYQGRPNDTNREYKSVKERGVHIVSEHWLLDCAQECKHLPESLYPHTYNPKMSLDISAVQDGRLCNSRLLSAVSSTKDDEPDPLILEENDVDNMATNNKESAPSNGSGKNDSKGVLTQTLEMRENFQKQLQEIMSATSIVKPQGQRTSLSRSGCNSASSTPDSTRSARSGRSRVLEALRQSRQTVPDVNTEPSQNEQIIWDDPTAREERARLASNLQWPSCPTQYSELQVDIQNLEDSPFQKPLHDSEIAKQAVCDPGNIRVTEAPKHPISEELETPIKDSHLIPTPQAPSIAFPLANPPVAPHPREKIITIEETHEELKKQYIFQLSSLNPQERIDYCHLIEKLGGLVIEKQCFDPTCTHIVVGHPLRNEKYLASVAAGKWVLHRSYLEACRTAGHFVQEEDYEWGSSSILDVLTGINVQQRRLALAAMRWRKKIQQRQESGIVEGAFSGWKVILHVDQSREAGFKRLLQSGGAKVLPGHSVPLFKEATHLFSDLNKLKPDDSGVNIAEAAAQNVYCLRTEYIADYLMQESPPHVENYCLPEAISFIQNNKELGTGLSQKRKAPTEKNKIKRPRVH
- thermal stability z-score (lipoamide; [1]): 0.0371
- thermal stability z-score (lipoamide; arsenate co-treatment: none): 0.0228
- thermal stability z-score (potassium arsenate): -0.623

Target: DCAF7 (UniProt P61962)
- thermal stability z-score (lipoamide; [1]): 0.278
- thermal stability z-score (lipoamide; arsenate co-treatment: none): 0.939
- thermal stability z-score (potassium arsenate): 1.2

Target: NPM3 (UniProt O75607)
- thermal stability z-score (lipoamide; [1]): 0.175
- thermal stability z-score (lipoamide; arsenate co-treatment: none): 0.102
- thermal stability z-score (potassium arsenate): -0.95

Target: RAD54B (UniProt Q9Y620)
- thermal stability z-score (lipoamide; [1]): -0.335
- thermal stability z-score (lipoamide; arsenate co-treatment: none): -0.346
- thermal stability z-score (potassium arsenate): -0.753

Target: CTU2 (UniProt Q2VPK5)
- thermal stability z-score (lipoamide; [1]): 0.157
- thermal stability z-score (lipoamide; arsenate co-treatment: none): 0.225
- thermal stability z-score (potassium arsenate): -0.165

Target: BAIAP2 (UniProt Q9UQB8)
- thermal stability z-score (lipoamide; [1]): 0.142
- thermal stability z-score (lipoamide; arsenate co-treatment: none): 0.0757
- thermal stability z-score (potassium arsenate): -0.138

Target: PTTG1 (UniProt O95997)
- thermal stability z-score (lipoamide; [1]): -1.19
- thermal stability z-score (lipoamide; arsenate co-treatment: none): -1.5
- thermal stability z-score (potassium arsenate): -1.58

Target: DNTTIP2 (UniProt Q5QJE6)
- thermal stability z-score (lipoamide; [1]): 0.201
- thermal stability z-score (lipoamide; arsenate co-treatment: none): 0.12
- thermal stability z-score (potassium arsenate): 0.279

Target: SNRNP27 (UniProt Q8WVK2)
Sequence of UniProt Q8WVK2 (Q8WVK2 whole entry): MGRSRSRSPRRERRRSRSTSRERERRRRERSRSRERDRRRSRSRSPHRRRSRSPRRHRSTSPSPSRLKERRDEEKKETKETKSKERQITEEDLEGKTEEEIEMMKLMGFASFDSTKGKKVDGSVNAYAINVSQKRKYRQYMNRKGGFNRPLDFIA
- thermal stability z-score (lipoamide; [1]): 0.418
- thermal stability z-score (lipoamide; arsenate co-treatment: none): -0.21
- thermal stability z-score (potassium arsenate): 0.444

Target: RPL7 (UniProt P18124)
- thermal stability z-score (lipoamide; [1]): 1.02
- thermal stability z-score (lipoamide; arsenate co-treatment: none): 0.379
- thermal stability z-score (potassium arsenate): -0.13

Target: LDHA (UniProt P00338)
- thermal stability z-score (lipoamide; [1]): 0.685
- thermal stability z-score (lipoamide; arsenate co-treatment: none): 0.577
- thermal stability z-score (potassium arsenate): -0.436

Target: CCDC51 (UniProt Q96ER9)
- thermal stability z-score (lipoamide; [1]): -0.68
- thermal stability z-score (lipoamide; arsenate co-treatment: none): -0.14
- thermal stability z-score (potassium arsenate): -0.324

Target: FAM21C (UniProt Q9Y4E1)
- thermal stability z-score (lipoamide; [1]): 0.0661
- thermal stability z-score (lipoamide; arsenate co-treatment: none): 0.32
- thermal stability z-score (potassium arsenate): 0.0902

Target: AP2A1 (UniProt O95782)
- thermal stability z-score (lipoamide; [1]): -0.0653
- thermal stability z-score (lipoamide; arsenate co-treatment: none): 0.3
- thermal stability z-score (potassium arsenate): 1.19

Target: SPNS1 (UniProt Q9H2V7)
- thermal stability z-score (lipoamide; [1]): -0.826
- thermal stability z-score (lipoamide; arsenate co-treatment: none): 0.677
- thermal stability z-score (potassium arsenate): 0.547

Target: DRG2 (UniProt P55039)
- thermal stability z-score (lipoamide; [1]): -0.439
- thermal stability z-score (lipoamide; arsenate co-treatment: none): -0.192
- thermal stability z-score (potassium arsenate): -0.395

Target: CKAP4 (UniProt Q07065)
- thermal stability z-score (lipoamide; [1]): -3.96
- thermal stability z-score (lipoamide; arsenate co-treatment: none): -2.84
- thermal stability z-score (potassium arsenate): -0.938

Target: PSMD13 (UniProt Q9UNM6)
- thermal stability z-score (lipoamide; [1]): -0.244
- thermal stability z-score (lipoamide; arsenate co-treatment: none): 0.13
- thermal stability z-score (potassium arsenate): -0.0407

Target: PNPLA4 (UniProt P41247)
Sequence of UniProt P41247 (P41247 whole entry): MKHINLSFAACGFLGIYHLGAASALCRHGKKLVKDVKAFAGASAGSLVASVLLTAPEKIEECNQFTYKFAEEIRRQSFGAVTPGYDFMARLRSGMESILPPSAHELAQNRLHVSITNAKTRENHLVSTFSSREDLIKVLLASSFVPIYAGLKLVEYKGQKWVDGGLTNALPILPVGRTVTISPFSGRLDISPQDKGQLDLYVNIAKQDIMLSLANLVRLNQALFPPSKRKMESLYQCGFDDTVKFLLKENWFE
- thermal stability z-score (lipoamide; [1]): 0.634
- thermal stability z-score (lipoamide; arsenate co-treatment: none): 0.101
- thermal stability z-score (potassium arsenate): 1.28

Target: HARS2 (UniProt P49590)
Sequence of UniProt P49590 (P49590 whole entry): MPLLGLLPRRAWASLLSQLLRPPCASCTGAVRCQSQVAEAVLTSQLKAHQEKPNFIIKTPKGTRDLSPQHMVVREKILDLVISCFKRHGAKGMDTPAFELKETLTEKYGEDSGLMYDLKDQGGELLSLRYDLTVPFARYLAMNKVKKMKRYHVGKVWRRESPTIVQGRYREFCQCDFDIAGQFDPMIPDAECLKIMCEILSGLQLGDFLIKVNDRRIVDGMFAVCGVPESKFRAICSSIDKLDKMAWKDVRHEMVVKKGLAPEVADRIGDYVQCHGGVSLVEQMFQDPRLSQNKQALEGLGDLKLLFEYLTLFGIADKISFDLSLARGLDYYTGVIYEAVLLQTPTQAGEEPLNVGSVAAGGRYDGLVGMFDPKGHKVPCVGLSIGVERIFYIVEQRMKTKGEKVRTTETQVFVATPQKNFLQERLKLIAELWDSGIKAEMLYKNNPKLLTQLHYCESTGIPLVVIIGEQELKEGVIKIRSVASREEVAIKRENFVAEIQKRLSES
- thermal stability z-score (lipoamide; [1]): -0.108
- thermal stability z-score (lipoamide; arsenate co-treatment: none): -0.629
- thermal stability z-score (potassium arsenate): -0.0959

Target: DDX54 (UniProt Q8TDD1)
- thermal stability z-score (lipoamide; [1]): -0.154
- thermal stability z-score (lipoamide; arsenate co-treatment: none): -0.015
- thermal stability z-score (potassium arsenate): -0.136

Target: R3HDM1 (UniProt Q15032)
- thermal stability z-score (lipoamide; [1]): 0.0761
- thermal stability z-score (lipoamide; arsenate co-treatment: none): 0.111
- thermal stability z-score (potassium arsenate): 0.0316

Target: DPH6 (UniProt Q7L8W6)
Sequence of UniProt Q7L8W6 (Q7L8W6 whole entry): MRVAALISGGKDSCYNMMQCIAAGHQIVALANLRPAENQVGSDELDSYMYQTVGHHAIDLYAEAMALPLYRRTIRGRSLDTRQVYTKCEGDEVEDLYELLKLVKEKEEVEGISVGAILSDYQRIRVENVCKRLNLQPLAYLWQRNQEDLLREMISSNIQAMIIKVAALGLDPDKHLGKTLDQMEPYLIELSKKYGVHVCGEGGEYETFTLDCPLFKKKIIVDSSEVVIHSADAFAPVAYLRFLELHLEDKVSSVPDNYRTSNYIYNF
- thermal stability z-score (lipoamide; [1]): -0.187
- thermal stability z-score (lipoamide; arsenate co-treatment: none): -0.152
- thermal stability z-score (potassium arsenate): -0.722

Target: LIFR (UniProt P42702)
- thermal stability z-score (lipoamide; [1]): -1.35
- thermal stability z-score (lipoamide; arsenate co-treatment: none): -0.675
- thermal stability z-score (potassium arsenate): -0.287

Target: TRUB2 (UniProt O95900)
- thermal stability z-score (lipoamide; [1]): 0.00158
- thermal stability z-score (lipoamide; arsenate co-treatment: none): 0.0663
- thermal stability z-score (potassium arsenate): -0.133

Target: AARSD1 (UniProt Q9BTE6)
- thermal stability z-score (lipoamide; [1]): 0.0117
- thermal stability z-score (lipoamide; arsenate co-treatment: none): 0.0955
- thermal stability z-score (potassium arsenate): 0.428

Target: HIST1H1C (UniProt P16403)
- thermal stability z-score (lipoamide; [1]): 0.707
- thermal stability z-score (lipoamide; arsenate co-treatment: none): 0.018
- thermal stability z-score (potassium arsenate): 0.0976

Target: SAP130 (UniProt Q9H0E3)
- thermal stability z-score (lipoamide; [1]): -0.208
- thermal stability z-score (lipoamide; arsenate co-treatment: none): -0.267
- thermal stability z-score (potassium arsenate): -0.246

Target: YBX1 (UniProt P67809)
Sequence of UniProt P67809 (P67809 whole entry): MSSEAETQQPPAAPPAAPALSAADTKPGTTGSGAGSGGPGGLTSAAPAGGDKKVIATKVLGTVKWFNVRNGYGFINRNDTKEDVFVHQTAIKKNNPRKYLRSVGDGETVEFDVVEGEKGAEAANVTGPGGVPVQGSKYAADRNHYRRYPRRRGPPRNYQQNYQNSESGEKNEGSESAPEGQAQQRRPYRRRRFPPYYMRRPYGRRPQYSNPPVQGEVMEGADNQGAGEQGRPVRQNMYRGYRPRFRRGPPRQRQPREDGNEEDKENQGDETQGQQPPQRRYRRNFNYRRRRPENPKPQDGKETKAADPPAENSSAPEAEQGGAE
- thermal stability z-score (lipoamide; [1]): -0.0518
- thermal stability z-score (lipoamide; arsenate co-treatment: none): -0.23
- thermal stability z-score (potassium arsenate): -0.894

Target: FAM103A1 (UniProt Q9BTL3)
Sequence of UniProt Q9BTL3 (Q9BTL3 whole entry): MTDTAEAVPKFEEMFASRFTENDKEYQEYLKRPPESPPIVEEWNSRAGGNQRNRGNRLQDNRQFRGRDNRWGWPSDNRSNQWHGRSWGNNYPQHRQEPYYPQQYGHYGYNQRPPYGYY
- thermal stability z-score (lipoamide; [1]): 1.17
- thermal stability z-score (lipoamide; arsenate co-treatment: none): 0.62
- thermal stability z-score (potassium arsenate): -0.0441

Target: FBXL18 (UniProt Q96ME1)
- thermal stability z-score (lipoamide; [1]): 0.241
- thermal stability z-score (lipoamide; arsenate co-treatment: none): 0.119
- thermal stability z-score (potassium arsenate): -0.711

Target: PXN (UniProt P49023)
Sequence of UniProt P49023 (P49023 whole entry): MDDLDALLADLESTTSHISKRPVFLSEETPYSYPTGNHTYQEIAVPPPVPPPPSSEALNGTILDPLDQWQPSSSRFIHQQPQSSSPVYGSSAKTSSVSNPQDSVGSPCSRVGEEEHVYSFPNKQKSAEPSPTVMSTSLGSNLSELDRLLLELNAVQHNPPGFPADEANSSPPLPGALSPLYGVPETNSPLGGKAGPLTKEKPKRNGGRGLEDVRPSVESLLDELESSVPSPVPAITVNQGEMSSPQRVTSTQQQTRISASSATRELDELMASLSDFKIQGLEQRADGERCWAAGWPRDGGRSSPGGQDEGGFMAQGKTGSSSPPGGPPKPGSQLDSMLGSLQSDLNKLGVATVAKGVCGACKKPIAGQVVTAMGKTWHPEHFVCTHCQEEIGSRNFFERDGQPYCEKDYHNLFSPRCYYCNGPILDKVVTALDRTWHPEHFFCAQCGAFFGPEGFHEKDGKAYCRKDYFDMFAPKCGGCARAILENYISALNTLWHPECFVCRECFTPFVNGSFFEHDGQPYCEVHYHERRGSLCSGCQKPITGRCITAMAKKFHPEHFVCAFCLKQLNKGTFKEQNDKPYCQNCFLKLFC
- thermal stability z-score (lipoamide; [1]): -0.261
- thermal stability z-score (lipoamide; arsenate co-treatment: none): -0.432
- thermal stability z-score (potassium arsenate): -2

Target: ARHGEF18 (UniProt Q6ZSZ5)
- thermal stability z-score (lipoamide; [1]): -0.0633
- thermal stability z-score (lipoamide; arsenate co-treatment: none): -0.00829
- thermal stability z-score (potassium arsenate): -0.0508

Target: NSMCE2 (UniProt Q96MF7)
- thermal stability z-score (lipoamide; [1]): 0.278
- thermal stability z-score (lipoamide; arsenate co-treatment: none): 0.339
- thermal stability z-score (potassium arsenate): 0.541

Target: SUCLG2 (UniProt Q96I99)
Sequence of UniProt Q96I99 (Q96I99 whole entry): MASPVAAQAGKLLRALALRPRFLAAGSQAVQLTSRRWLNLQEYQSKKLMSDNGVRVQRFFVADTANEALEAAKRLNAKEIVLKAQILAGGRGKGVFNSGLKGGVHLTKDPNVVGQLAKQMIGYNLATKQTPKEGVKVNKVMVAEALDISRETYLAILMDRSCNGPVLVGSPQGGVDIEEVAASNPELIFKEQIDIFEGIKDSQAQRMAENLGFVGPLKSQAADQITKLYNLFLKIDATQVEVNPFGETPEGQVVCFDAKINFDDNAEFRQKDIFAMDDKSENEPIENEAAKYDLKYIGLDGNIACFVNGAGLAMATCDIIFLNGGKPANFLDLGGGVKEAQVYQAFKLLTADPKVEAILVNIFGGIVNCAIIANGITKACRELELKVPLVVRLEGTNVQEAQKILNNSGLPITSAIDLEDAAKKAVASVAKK
- thermal stability z-score (lipoamide; [1]): 0.0359
- thermal stability z-score (lipoamide; arsenate co-treatment: none): 0.172
- thermal stability z-score (potassium arsenate): 0.106
